In US5041567A, “Antibacterial monic acid derivatives” (Beecham Group plc, priority 1982, dated 1991):
In brackets after ≈: the same amount, converted by molar mass. Read-outs that look alike come from different tables or passages of the source.

Key:
[1] = tested on: M. suipneumoniae NB12; assay: MIC against mycoplasma in vitro; type: cell-based; details: Mesomycoplasma hyopneumoniae
[2] = tested on: P. mirabilis 889; assay: MIC against human bacteria in vitro; type: cell-based; details: Proteus mirabilis; P. mirabilis 889; 5% chocolated horse blood agar, 18 hours; read-out: MIC
[3] = tested on: M. gallisepticum S6; assay: MIC against mycoplasma in vitro; type: cell-based; details: Mycoplasmoides gallisepticum
[4] = tested on: Strep. uberis SPU1; assay: MIC against veterinary bacteria in vitro; details: Streptococcus uberis, SPU1, 18 h
Experimental: (§1) The activity of the compounds of the Examples against various veterinarily important bacteria, was assayed in vitro using two-fold serial dilutions in Diagnostic Sensitivity Test Agar inoculated with 10^4 organisms.

[5] = tested on: Strep. dysgalactiae SPD1; assay: MIC against veterinary bacteria in vitro; details: Streptococcus dysgalactiae, SPD1, 18 h
Experimental: as §1

[6] = tested on: Staph. aureus 152 (pen. sens); assay: MIC against veterinary bacteria in vitro; details: Staphylococcus aureus, 18 h
Experimental: as §1

[7] = tested on: E. coli NCTC 10418; assay: MIC against veterinary bacteria in vitro; details: Escherichia coli, NCTC10418, 18 h
Experimental: as §1

[8] = tested on: M. suipneumoniae TAM 6N; assay: MIC against mycoplasma in vitro; type: cell-based; details: Mesomycoplasma hyopneumoniae, TAM6N, 144 h
[9] = tested on: S. typhimurium S18; assay: MIC against veterinary bacteria in vitro; details: Salmonella enterica, TYPHIMURIUM, 18 h
Experimental: as §1

[10] = tested on: Ps. aeruginosa NCTC 10662; assay: MIC against human bacteria in vitro; type: cell-based; details: Pseudomonas aeruginosa, NCTC10662; Ps. aeruginosa NCTC 10662; 5% chocolated horse blood agar, 18 hours; read-out: MIC
[11] = tested on: E. coli NCTC 10418; assay: MIC against human bacteria in vitro; type: cell-based; details: Escherichia coli, NCTC10418; E. coli NCTC 10418; agar with 5% chocolated horse blood, 18 hours, 37° C.; read-out: MIC
[12] = tested on: Strep. pyogenes R80/421-A; assay: MIC against human bacteria in vitro; type: cell-based; details: Streptococcus pyogenes; Strep. pyogenes R80/421-A; 5% chocolated horse blood agar, 18 hours; read-out: MIC
[13] = tested on: E. coli E1; assay: MIC against veterinary bacteria in vitro; details: Escherichia coli, E1, 18 h
Experimental: as §1

[14] = tested on: M. bovigenitalium ATCC 14173; assay: MIC against mycoplasma in vitro; type: cell-based; details: 144 h
[15] = tested on: K. aerogenes A; assay: MIC against human bacteria in vitro; type: cell-based; details: Klebsiella aerogenes; K. aerogenes A; 5% chocolated horse blood agar, 18 hours; read-out: MIC
[16] = tested on: M. suipneumoniae MS 16; assay: MIC against mycoplasma in vitro; type: cell-based; details: Mesomycoplasma hyopneumoniae, MS16, 144 h
[17] = tested on: M. bovis NCTC 10131; assay: microbe, parasite or virus in culture; type: cell-based; details: NCTC10131, 144 h
[18] = tested on: Strep. spp. 64/848-C; assay: MIC against human bacteria in vitro; type: cell-based; details: Strep. spp. 64/848-C; 5% chocolated horse blood agar, 18 hours; read-out: MIC
[19] = tested on: Bord. bronchiseptica B09; assay: MIC against veterinary bacteria in vitro; details: Bordetella bronchiseptica, B09, 18 h
Experimental: as §1

[20] = tested on: M. suipneumoniae Str. 11; assay: MIC against mycoplasma in vitro; type: cell-based; details: Mesomycoplasma hyopneumoniae, STR.11, 144 h
[21] = tested on: Strep. faecalis I; assay: MIC against human bacteria in vitro; type: cell-based; details: Enterococcus faecalis; Strep. faecalis I; 5% chocolated horse blood agar, 18 hours; read-out: MIC
[22] = tested on: Neisseria catarrhalis 1502; assay: MIC against human bacteria in vitro; type: cell-based; details: Neisseria catarrhalis 1502; 5% chocolated horse blood agar, 18 hours; read-out: MIC
[23] = 144 h, M. gallisepticum S6, 6 days, 37° C., read-out: MIC

Row | Compound | MIC ([1]; NB12, 144 h) | MIC [2] | MIC [3, 23] | MIC [4] | MIC [5] | MIC [6] | MIC [7] | MIC [9] | MIC [10] | MIC [11] | MIC [12] | MIC [13] | MIC [15] | MIC [16] | MIC [17] | MIC [18] | MIC [19] | MIC [20] | MIC [21] | MIC [22] | also measured
1 | C/C(=C\c1ncc(-c2ccc(C(=O)O)cc2)o1)C[C@@H]1OC[C@H](C[C@@H]2O[C@H]2[C@@H](C)[C@H](C)O)[C@@H](O)[C@H]1O [Example 17, Sodium 4-[2-(1-normon-2-yl)-5-oxazolyl] benzoate A] | 2.5 µg/mL | > 64 µg/mL | > 10 µg/mL | 1.25 µg/mL | 2.5 µg/mL | 10 µg/mL | > 80 µg/mL | > 80 µg/mL | > 64 µg/mL | > 64 µg/mL | 4 µg/mL | > 80 µg/mL | > 64 µg/mL | 2.5 µg/mL | 2.5 µg/mL | 32 µg/mL | 40 µg/mL | 2.5 µg/mL | > 64 µg/mL | 8 µg/mL | MIC ([8]; M. suipneumoniae TAM 6N, 6 days, 37° C., read-out: MIC): 10 µg/mL; MIC ([14]; M. bovigenitalium ATCC 14173, 6 days, 37° C., read-out: MIC): 5 µg/mL
2 | C/C(=C\c1ncc(-c2ccc(Br)cc2)o1)C[C@@H]1OC[C@H](C[C@@H]2O[C@H]2[C@@H](C)[C@H](C)O)[C@@H](O)[C@H]1O [Example 18, 5-p-Bromophenyl-2-(1-normon-2-yl) oxazole A] | – | > 128 µg/mL | – | < 0.039 µg/mL | 0.156 µg/mL (≈ 0.299 µM) | 0.312 µg/mL (≈ 0.597 µM) | > 80 µg/mL | > 80 µg/mL | > 128 µg/mL | > 128 µg/mL | 2 µg/mL (≈ 3.83 µM) | > 80 µg/mL | > 128 µg/mL | 0.25 µg/mL (≈ 0.479 µM) | 0.05 µg/mL (≈ 0.0957 µM) | 4 µg/mL (≈ 7.66 µM) | 10 µg/mL (≈ 19.1 µM) | 0.25 µg/mL (≈ 0.479 µM) | > 128 µg/mL | 4 µg/mL (≈ 7.66 µM) | MIC ([1]; 144 h, M. suipneumoniae NB12, Friis broth, 0.9% agarose, 6 days, 37° C., read-out: MIC): 0.5 µg/mL (≈ 0.957 µM); MIC ([3]; S6, 144 h): 1 µg/mL (≈ 1.91 µM); MIC [8]: 1 µg/mL (≈ 1.91 µM); MIC [14]: 0.1 µg/mL (≈ 0.191 µM)
3 | C/C(=C\c1ncc(CCCCCCCCO)o1)C[C@@H]1OC[C@H](C[C@@H]2O[C@H]2[C@@H](C)[C@H](C)O)[C@@H](O)[C@H]1O [Example 19, 5-(8-Hydroxyoctyl)-2-(1-normon-2-yl) oxazole A] | 1 µg/mL (≈ 2.02 µM) | > 128 µg/mL | 10 µg/mL (≈ 20.2 µM) | 0.625 µg/mL (≈ 1.26 µM) | 2.5 µg/mL (≈ 5.04 µM) | 1.25 µg/mL (≈ 2.52 µM) | > 80 µg/mL | > 80 µg/mL | > 128 µg/mL | > 128 µg/mL | 2 µg/mL (≈ 4.04 µM) | > 80 µg/mL | > 128 µg/mL | – | 0.025 µg/mL (≈ 0.0504 µM) | 16 µg/mL (≈ 32.3 µM) | 20 µg/mL (≈ 40.4 µM) | 1 µg/mL (≈ 2.02 µM) | > 128 µg/mL | – | MIC [8]: 2.5 µg/mL (≈ 5.04 µM); MIC [14]: 0.1 µg/mL (≈ 0.202 µM); MIC ([16]; M. suipneumoniae MS 16, 6 days, 37° C., read-out: MIC): 0.5 µg/mL (≈ 1.01 µM)
